How the values were obtained:
Phosphodiesterase 1 = Phosphodiesterase 1 (Homo sapiens, UniProt P54750+Q01064+Q14123); test: Inhibitory concentration against Phosphodiesterase type 1; assay type: protein assay
[1] = biological target: cGMP-specific 3',5'-cyclic phosphodiesterase (Homo sapiens, UniProt O76074); test: Inhibitory concentration against Phosphodiesterase type 5

Cc1nc(NC(=O)c2cccc(COc3ccccc3)n2)sc1C(=O)NO
IC50 (Phosphodiesterase 1): > 10 µM
IC50 [1]: 0.77 µM

CC(C)CC(C(=O)O)c1csc(NC(=O)c2cccc(COc3ccccc3)n2)n1 (centres undefined)
IC50 (Phosphodiesterase 1): > 10 µM
IC50 [1]: 6.25 µM

COc1cc(OC)c(OC)c(C(=O)Nc2nc(CC(=O)NO)cs2)c1
IC50 (Phosphodiesterase 1): > 10 µM
IC50 [1]: 2.58 µM

O=C(Cc1csc(NC(=O)c2ccc3ccccc3n2)n1)NO
IC50 (Phosphodiesterase 1): 8 µM
IC50 [1]: 0.14 µM

CCc1cc(C(C)=O)c(O)cc1OCc1cccc(C(=O)N[C@H](C)C(=O)O)n1
IC50 [1]: 1.03 µM

CC(C)C(C(=O)NO)c1csc(NC(=O)c2cccc(COc3ccccc3)n2)n1 (centres undefined)
IC50 (Phosphodiesterase 1): 3.9 µM
IC50 [1]: 2.42 µM

CCc1cc(C(C)=O)c(O)cc1OCc1cccc(C(=O)NC(C)C(=O)OC)c1 (centres undefined)
IC50 [1]: 2.13 µM

Cc1cc(C)cc(C(=O)Nc2nc(CC(=O)NO)cs2)c1
IC50 (Phosphodiesterase 1): > 10 µM
IC50 [1]: 1.83 µM

CCc1cc(C(C)=O)c(O)cc1OCc1cccc(C(=O)NC(C(=O)O)C(C)C)n1 (centres undefined)
IC50 [1]: 1.24 µM

CCc1cc(C(C)=O)c(O)cc1OCc1cccc(C(=O)NC(CO)CCC(=O)OC)n1 (centres undefined)
IC50 [1]: 2.64 µM

CCc1cc(C(C)=O)c(O)cc1OCc1cccc(C(=O)NC(CO)(CO)CO)n1
IC50 [1]: 8.91 µM

Cc1nc(NC(=O)c2cccc(COc3ccccc3)n2)sc1C(=O)O
IC50 (Phosphodiesterase 1): 4.48 µM
IC50 [1]: 4.99 µM

CCCCCCCC(=O)OCC(NC(=O)c1cccc(COc2cc(O)c(C(C)=O)cc2CC)n1)C(=O)O (centres undefined)
IC50 [1]: 3.28 µM

CCc1cc(C(C)=O)c(O)cc1OCc1cccc(C(=O)NCC(=O)O)c1
IC50 [1]: 0.92 µM

CCc1cc(C(C)=O)c(O)cc1OCc1cccc(C(=O)NC(C)C(=O)NO)n1 (centres undefined)
IC50 [1]: 0.35 µM

COc1ccc(NC(=O)c2cccc(COc3ccccc3)n2)cc1C(=O)NO
IC50 (Phosphodiesterase 1): > 10 µM
IC50 [1]: 3.5 µM

O=C(Nc1nc(C(Cc2ccccc2)C(=O)O)cs1)c1cccc(COc2ccccc2)n1 (centres undefined)
IC50 (Phosphodiesterase 1): > 10 µM
IC50 [1]: 10 µM

O=C(Nc1nc(C2(C(=O)NO)CCOCC2)cs1)c1cccc(COc2ccccc2)n1
IC50 (Phosphodiesterase 1): 2.93 µM
IC50 [1]: 2.49 µM

CN(C)c1cccc(C(=O)Nc2nc(CC(=O)NO)cs2)c1
IC50 (Phosphodiesterase 1): > 10 µM
IC50 [1]: 5.47 µM

O=C(Cc1csc(NC(=O)c2cccc3ccccc23)n1)NO
IC50 (Phosphodiesterase 1): 1 µM
IC50 [1]: 1.1 µM

COc1ccc2c(c1)C(CC(=O)Nc1nc(CC(=O)NO)cs1)CC2=O (centres undefined)
IC50 (Phosphodiesterase 1): > 10 µM
IC50 [1]: 3.16 µM

CCc1cc(C(C)=O)c(O)cc1OCc1cccc(C(=O)NC(CO)CC(=O)O)n1 (centres undefined)
IC50 [1]: 9.46 µM

O=C(Cc1csc(NC(=O)c2cnc3ccccc3n2)n1)NO
IC50 (Phosphodiesterase 1): > 10 µM
IC50 [1]: 1.84 µM

CCc1cc(C(C)=O)c(O)cc1OCc1cccc(C(=O)NC(CO)C(=O)OCc2ccccc2)n1 (centres undefined)
IC50 [1]: 8.62 µM

O=C(Nc1nc(C2(C(=O)NO)CC2)cs1)c1cccc(COc2ccccc2)n1
IC50 (Phosphodiesterase 1): 0.63 µM
IC50 [1]: 0.89 µM

CCC(=O)OCC(NC(=O)c1cccc(COc2cc(O)c(C(C)=O)cc2CC)n1)C(=O)O (centres undefined)
IC50 [1]: 6.68 µM

CCc1cc(C(C)=O)c(O)cc1OCc1cccc(C(=O)NC(Cc2cnc[nH]2)C(=O)OC)n1 (centres undefined)
IC50 [1]: 9.07 µM

Cc1c(NC(=O)c2cccc(COc3ccccc3)n2)cccc1C(=O)NO
IC50 (Phosphodiesterase 1): > 10 µM
IC50 [1]: 2.66 µM

CCCCC(C(=O)NO)c1csc(NC(=O)c2cccc(COc3ccccc3)n2)n1 (centres undefined)
IC50 (Phosphodiesterase 1): 0.2 µM
IC50 [1]: 0.27 µM

O=C(Cc1csc(NC(=O)COc2ccc(Cl)cc2)n1)NO
IC50 (Phosphodiesterase 1): 1.81 µM
IC50 [1]: 1.69 µM

CCC(C(=O)Nc1nc(CC(=O)NO)cs1)c1ccccc1 (centres undefined)
IC50 (Phosphodiesterase 1): > 10 µM
IC50 [1]: 6.19 µM

CCc1cc(C(C)=O)c(O)cc1OCc1cccc(C(=O)NC(C(=O)OC)C(C)O)n1 (centres undefined)
IC50 [1]: 3.35 µM

CCc1cc(C(C)=O)c(O)cc1OCc1cccc(C(=O)NC(C)C(=O)O)c1 (centres undefined)
IC50 [1]: 0.13 µM

CCc1cc(C(C)=O)c(O)cc1OCc1cccc(C(=O)NC(CC(=O)O)c2ccccc2)n1 (centres undefined)
IC50 [1]: 1.45 µM

Cc1cccc(C(=O)Nc2nc(CC(=O)NO)cs2)c1Br
IC50 (Phosphodiesterase 1): 3.87 µM
IC50 [1]: 8.43 µM

O=C(Cc1csc(NC(=O)c2cccc(SC(F)(F)F)c2)n1)NO
IC50 (Phosphodiesterase 1): 1.72 µM
IC50 [1]: 0.43 µM

O=C(O)Cc1cccc(NC(=O)c2cccc(COc3ccccc3)n2)n1
IC50 (Phosphodiesterase 1): > 10 µM
IC50 [1]: 9.43 µM

CCc1cc(C(C)=O)c(O)cc1OCc1cccc(C(=O)NCC(O)c2ccc(O)cc2)n1 (centres undefined)
IC50 [1]: 3.19 µM

CCCCCCCCCCCC(=O)Nc1nc(CC(=O)NO)cs1
IC50 (Phosphodiesterase 1): > 10 µM
IC50 [1]: 1.8 µM

CCCCCCC(C(=O)O)c1csc(NC(=O)c2cccc(COc3ccccc3)n2)n1 (centres undefined)
IC50 (Phosphodiesterase 1): > 10 µM
IC50 [1]: 4.58 µM

CCc1cc(C(C)=O)c(O)cc1OCc1cccc(C(=O)NC(CO)C(=O)O)c1 (centres undefined)
IC50 [1]: 0.68 µM

CCc1cc(C(C)=O)c(O)cc1OCc1cccc(C(=O)NCCC(=O)O)n1
IC50 [1]: 0.27 µM

CCc1cc(C(C)=O)c(O)cc1OCc1cccc(C(=O)N(CCCCCCCCC(N)=O)C(C)CC)n1 (centres undefined)
IC50 [1]: 3.3 µM

O=C(Cc1csc(NC(=O)COc2ccccc2)n1)NO
IC50 (Phosphodiesterase 1): > 10 µM
IC50 [1]: 5.62 µM

O=C(Nc1nc(C2(C(=O)O)CC2)cs1)c1cccc(COc2ccccc2)n1
IC50 (Phosphodiesterase 1): > 10 µM
IC50 [1]: 8.58 µM

O=C(O)CCC(C(=O)O)c1csc(NC(=O)c2cccc(COc3ccccc3)n2)n1 (centres undefined)
IC50 (Phosphodiesterase 1): > 10 µM
IC50 [1]: 10 µM

O=C(Nc1nc(C2(C(=O)O)CCOCC2)cs1)c1cccc(COc2ccccc2)n1
IC50 (Phosphodiesterase 1): > 10 µM
IC50 [1]: 10 µM

O=C(NO)c1cccc(NC(=O)c2cccc(COc3ccccc3)n2)n1
IC50 (Phosphodiesterase 1): > 10 µM
IC50 [1]: 1.47 µM

O=C(Cc1csc(NC(=O)Cc2cccc(C(F)(F)F)c2)n1)NO
IC50 (Phosphodiesterase 1): > 10 µM
IC50 [1]: 2.07 µM

O=C(Cc1csc(NC(=O)c2ccc(Cl)cc2Cl)n1)NO
IC50 (Phosphodiesterase 1): > 10 µM
IC50 [1]: 4.25 µM

O=C(Cc1csc(NC(=O)Nc2cccc3ccccc23)n1)NO
IC50 (Phosphodiesterase 1): > 10 µM
IC50 [1]: 3.81 µM

CCc1cc(C(C)=O)c(O)cc1OCc1cccc(C(=O)NC(O)CC(=O)OC)n1 (centres undefined)
IC50 [1]: 6.07 µM

COc1ccc2c(c1)c(CC(=O)Nc1nc(CC(=O)NO)cs1)c(C)n2C(=O)c1ccc(Cl)cc1
IC50 (Phosphodiesterase 1): 2.8 µM
IC50 [1]: 1.28 µM

Cc1sc(NC(=O)c2cccc(COc3ccccc3)n2)nc1CC(=O)NO
IC50 (Phosphodiesterase 1): 4.52 µM
IC50 [1]: 0.04 µM

CCc1cc(C(C)=O)c(O)cc1OCc1cccc(C(=O)N(CC)CCCCCCCCC(N)=O)n1
IC50 [1]: 1.21 µM

O=C(Cc1csc(NC(=O)C2C=CN(c3ccccc3)c3ccccc32)n1)NO (centres undefined)
IC50 (Phosphodiesterase 1): 0.38 µM
IC50 [1]: 0.79 µM

CCc1cc(C(C)=O)c(O)cc1OCc1cccc(C(=O)NCCCCCC(=O)O)n1
IC50 [1]: 7.65 µM

O=C(O)Cc1cccc(NC(=O)c2cccc(COc3ccccc3)n2)c1
IC50 (Phosphodiesterase 1): > 10 µM
IC50 [1]: 10 µM

CCCCC(C(=O)O)c1csc(NC(=O)c2cccc(COc3ccccc3)n2)n1 (centres undefined)
IC50 (Phosphodiesterase 1): > 10 µM
IC50 [1]: 6.49 µM

CCc1cc(C(C)=O)c(O)cc1OCc1cccc(C(=O)NC(Cc2ccc(O)cc2)C(=O)O)n1 (centres undefined)
IC50 [1]: 3.68 µM

O=C(Cc1csc(NC(=O)c2ccccc2F)n1)NO
IC50 (Phosphodiesterase 1): > 10 µM
IC50 [1]: 7.56 µM

CCc1cc(C(C)=O)c(O)cc1OCc1cccc(C(=O)NC2COC(=O)C2)n1 (centres undefined)
IC50 [1]: 7.82 µM

O=C(NO)C(=O)c1csc(NC(=O)c2cccc(COc3ccccc3)n2)n1
IC50 (Phosphodiesterase 1): > 10 µM
IC50 [1]: 2.2 µM

O=C(Cc1csc(NC(=O)c2cnccc2Oc2ccc(Cl)cc2)n1)NO
IC50 (Phosphodiesterase 1): 2.67 µM
IC50 [1]: 0.32 µM

CCOC(=O)CC(NC(=O)c1cccc(COc2cc(O)c(C(C)=O)cc2CC)c1)C(=O)OCC (centres undefined)
IC50 [1]: 0.65 µM

O=C(Cc1cccc(NC(=O)c2cccc(COc3ccccc3)n2)n1)NO
IC50 (Phosphodiesterase 1): > 10 µM
IC50 [1]: 0.04 µM

CCc1cc(C(C)=O)c(O)cc1OCc1cccc(C(=O)Nc2nn[nH]n2)n1
IC50 [1]: 5.15 µM

CCCCCCC(C(=O)NO)c1csc(NC(=O)c2cccc(COc3ccccc3)n2)n1 (centres undefined)
IC50 (Phosphodiesterase 1): 5.7 µM
IC50 [1]: 0.23 µM

CC(C)(C(=O)NO)c1csc(NC(=O)c2cccc(COc3ccccc3)n2)n1
IC50 (Phosphodiesterase 1): 0.67 µM
IC50 [1]: 0.52 µM

O=C(O)CCC(CCC(=O)O)(C(=O)O)c1csc(NC(=O)c2cccc(COc3ccccc3)n2)n1
IC50 (Phosphodiesterase 1): > 10 µM
IC50 [1]: 9.28 µM

CCc1cc(C(C)=O)c(O)cc1OCc1cccc(C(=O)Nc2ccc(OCC(=O)O)cc2)n1
IC50 [1]: 3.1 µM

CCc1cc(C(C)=O)c(O)cc1OCc1cccc(C(=O)Nc2nc(CC(=O)O)cs2)c1
IC50 [1]: 0.63 µM

CCc1cc(C(C)=O)c(O)cc1OCc1cccc(C(=O)N[C@@H](C)C(=O)O)n1
IC50 [1]: 0.46 µM

C=CCN(CCC(=O)O)C(=O)c1cccc(COc2cc(O)c(C(C)=O)cc2CC)n1
IC50 [1]: 0.87 µM

CCc1cc(C(C)=O)c(O)cc1OCc1cccc(C(=O)NC(CO)CC(=O)OC)n1 (centres undefined)
IC50 [1]: 3.1 µM

Reference: ChEMBL document CHEMBL1140357, “Discovery of hydroxamic acid analogs as dual inhibitors of phosphodiesterase-1 and -5” (Bioorg Med Chem Lett, 2005)
